CCS(=O)(=O)c1cccnc1S(=O)(=O)NC(=O)Nc1nc(OC)cc(OC)n1
solubility (mole fraction)
Conditions | 278.15 K | 283.15 K | 288.15 K | 293.15 K | 298.15 K | 303.15 K | 308.15 K | 313.15 K | 318.15 K | 323.15 K
in DMF | 5.64e-05 | 7.09e-05 | 8.7e-05 | 0.000106 | 0.000125 | 0.000148 | 0.000172 | 0.000199 | 0.000228 | 0.000262
in ethanol | 1.91e-05 | 2.32e-05 | 2.82e-05 | 3.4e-05 | 4.03e-05 | 4.76e-05 | 5.52e-05 | 6.36e-05 | 7.34e-05 | 8.5e-05
in ethylene glycol | 7.03e-06 | 8.83e-06 | 1.07e-05 | 1.28e-05 | 1.53e-05 | 1.79e-05 | 2.08e-05 | 2.38e-05 | 2.76e-05 | 3.19e-05
in methanol | 2.17e-05 | 2.67e-05 | 3.26e-05 | 3.96e-05 | 4.7e-05 | 5.5e-05 | 6.37e-05 | 7.48e-05 | 8.56e-05 | 9.85e-05
in water | 2.28e-07 | 2.82e-07 | 3.44e-07 | 4.13e-07 | 4.88e-07 | 5.76e-07 | 6.77e-07 | 7.75e-07 | 8.96e-07 | 1.02e-06
